EC50 and Ki data for 13 molecules are collected here from BindingDB's records for doi:10.1021/acschembio.7b00489 (Michigan State University, 2017).

The target of test [1] is Proteasome subunit alpha type-6 (Homo sapiens, UniProt P60900). The experiment in a line: Proteasome Activity Assay. The note with it: pH 7.5; 37 °C. The method, then:
Activity assays were carried out in a 200 uL reaction volume. Different concentrations of test compounds were added to a black flat/clear bottom 96-well plate containing 1 nM of either human constitutive 20S proteasome or 26S proteasome, in 50 mM Tris-HCl at pH 7.5 and allowed to sit for 10 min at RT. Fluorogenic substrates were then added and the enzymatic activity measured at 37 °C on a SpectraMax M5e spectrometer by measuring the change in fluorescence unit per minute for 1 h at 380−460 nm. The fluorescence units for the vehicle control were set at a 100%, and the ratio of drug-treated sample set to that of vehicle control was used to calculate the fold change in enzymatic activity.

In test [2] the target is Dopamine D2 receptor (Homo sapiens). The experiment in a line: Human embryonic kidney (HEK-293) cells were plated in 100 mm plates and transfected with pcDNA3.1-D2R using Lipofectamine 2000 (Invitrogen; Waltham, MA) according to the manufacturer's instructions. Radioligand binding assays were performed 24 h after transfection essentially as described.

The structures appear in SMILES notation. Values joined by “and” are separate entries in the source; they are usually repeats but may differ in a detail not shown here. Equal values may be shown once. Where a name gives a salt, the structure may show the parent alone. Some results are limits rather than exact numbers.

Sequence of Proteasome subunit alpha type-6 (P60900 whole entry): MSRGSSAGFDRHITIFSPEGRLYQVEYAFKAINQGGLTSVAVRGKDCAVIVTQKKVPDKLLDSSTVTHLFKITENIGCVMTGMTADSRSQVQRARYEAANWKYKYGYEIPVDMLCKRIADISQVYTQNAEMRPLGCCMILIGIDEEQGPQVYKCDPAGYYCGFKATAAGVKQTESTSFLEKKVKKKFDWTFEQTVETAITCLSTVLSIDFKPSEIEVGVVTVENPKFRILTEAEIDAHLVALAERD

In the case of `CSc1ccc2c(c1)N(CC[C@@H]1CCCCN1C)c1ccccc1S2` [10-[2-(1-Methyl-piperidin-2-yl)-ethyl]-2-methylsulfanyl-10H-phenothiazine (thioridazine)], it took 12 µM to reach a half-maximal effect in test [1] (EC50).
The same measure, in the same setting: to `CN(C)CCCN1c2ccccc2CCc2ccc(Cl)cc21` [CLOMIPRAMINE HYDROCHLORIDE] belongs 12.4 µM.
`CC(C)CCCN1c2ccccc2Sc2ccc(Cl)cc21` [CPZ analog, 1] had an EC50 in test [1] of over 25 µM. For the same molecule, the Ki in test [2] is over 250 µM.
In the same order, the values of `O=S(=O)(O)CCCCN1c2ccccc2Sc2ccc(Cl)cc21` [CPZ analog, 2] are 6.3 µM and over 250 µM.
In test [1], `O=S(=O)(O)CCCN1c2ccccc2Sc2ccc(Cl)cc21` [CPZ analog, 3] registered an EC50 of over 25 µM.
Still for that read-out and setting: to `O=S(=O)(O)CCCCCN1c2ccccc2Sc2ccc(Cl)cc21` [CPZ analog, 4] belongs over 25 µM.
Turning to `Clc1ccc2c(c1)N(CCCCN1CCOCC1)c1ccccc1S2` [CPZ analog, 5], the response in test [1] was half-maximal at 8.9 µM (EC50). In test [2], this molecule displayed an inhibitory constant (Ki) of over 2.97 µM.
The molecule `O=C(O)C#CCN1c2ccccc2Sc2ccc(Cl)cc21` [CPZ analog, 6] yielded an EC50 in test [1] of over 25 µM. In test [2], this molecule had a Ki of over 250 µM.
In the same order, the values of `O=C(O)c1ccc(CN2c3ccccc3Sc3ccc(Cl)cc32)cc1` [CPZ analog, 7] are 6.4 µM and over 250 µM.
In the same order, the values of `COC(=O)c1ccc(CN2c3ccccc3Sc3ccc(Cl)cc32)cc1` [CPZ analog, 8] are 15.6 µM and over 250 µM.
The molecule `CN1CCCC(CC2c3ccccc3Sc3ccccc32)C1` (centres undefined) [METHIXENE] gave an EC50 in test [1] of 11.9 µM.
On to `CN(C)CCCN1c2ccccc2Sc2ccc(C(F)(F)F)cc21` [TRIFLUPROMAZINE], for which, in test [1], the EC50 was found to be 7.8 µM.
For `CN(C)CCCN1c2ccccc2Sc2ccc(Cl)cc21` [[3-(2-Chloro-phenothiazin-10-yl)-propyl]-dimethyl-amine(Chlorpromazine)], in test [1], the EC50 was 14.8 µM and 9.9 µM.
